A value given as a limit tells only on which side of the number the result lay.

In test [1] the target is T1, NLRP3 (Homo sapiens, UniProt Q96P20).
T1 construct: host or cells: THP-1 cells, PMA-differentiated, LPS-primed, nigericin-stimulated
The test can be described thus: THP-1 pyroptosis assay (caspase-1 p20 in supernatant by Western blot). Format: cell-based. The following applies: PMA-differentiated THP-1, LPS 50 ng/ml 4 h, compound 30 min, nigericin 15 μM 45 min; caspase-1 p20 Western blot. The protocol:
(§1) THP-1 cell lines (procell, #CL-0233) were cultured in RPMI-1640 medium (Gibco, #C11875500BT) supplemented with 10% FBS, 100 U/ml penicillin, 100 µg/ml streptomycin and 0.05 mM β-mercaptoethanol (BME). THP-1 cells were seeded at 5×10^5/ml in 12 well plates and were differentiated into macrophages by incubation with 5 ng/ml PMA (Sigma, #P8139-1MG) for 48 h. Cells were washed with PBS and then were primed with 50 ng/ml LPS (InvivoGen, #tlrl-b5lps) for 4 h. Medium were removed and replaced with serum free medium (SFM) containing compound (2.5-40 nM) or MCC950 (5-25 nM) for 30 min. Cells were then stimulated with 15 μM nigericin (Invivogen, #tlrl-nig) for 45 min.
The protein of supernatants was concentrated using StrataClean™ resin (Agilent, #400714) according to the manufacturer's instructions. The protein samples were resolved on 4-20% SDS-PAGE gels and transferred onto 0.45 PVDF membrane (Immobilon-P #IPVH00010) using a wet transfer system. Membranes were blocked in 5% (w/v) dried milk in PBST for 1 h at room temperature. Membranes were incubated with primary antibody (Adipogen, #AG-20B-0048B-C100) diluted in Primary Antibody Dilution Buffer (Beyotime, #P0023A-100 ml) according to the manufacturer's instructions, followed by incubation with the IgG(H+L) (HRP-labeled Goat Anti-Mouse IgG(H+L) (Beyotime, #A0216) diluted in 1% (w/v) dried milk in PBST for 1 h. The protein expression was visualized using Super ECL Detection Reagent (YEASEN,
FIG. 1. Results of Western blots for THP-1 cell-based pyroptosis assay using the cleavage of caspase-1 into p20 as reporting indication of NLRP3 inhibition. […] Molecule N-027 (Compound #51) and N-027B (Compound #53) inhibits NLRP3 inflammasome activation in macrophages, N-027 IC50 (caspase-1)<5 nM; N-027B IC50 (caspase-1) 1 nM. THP-1 cells were primed for 4 h with LPS (50 ng/ml), and then LPS-primed THP-1 cells were incubated with N-027 or N-027B for 30 min and then stimulated with nigericin (15 μM) for 45 min. Caspase-1 (p20) in supernatants were measured by Western blots.

The target of test [2] is T1, NLRP3. The test can be described thus: IL-1β assay (ELISA of THP-1 culture supernatant). Format: cell-based. As to conditions: PMA-differentiated THP-1, LPS 50 ng/ml 4 h, compound 30 min, nigericin 15 μM 45 min; Human IL-1β ELISA. The protocol: as §1
The culture supernatant of THP-1 was removed and analyzed using Human IL-1β ELISA Kit according to the manufacturer's instructions (Beyotime, #PI305). The IL-1β concentration was measured at 450 nm wavelength of absorbance and calculated.

T1 sequence (Q96P20 whole entry): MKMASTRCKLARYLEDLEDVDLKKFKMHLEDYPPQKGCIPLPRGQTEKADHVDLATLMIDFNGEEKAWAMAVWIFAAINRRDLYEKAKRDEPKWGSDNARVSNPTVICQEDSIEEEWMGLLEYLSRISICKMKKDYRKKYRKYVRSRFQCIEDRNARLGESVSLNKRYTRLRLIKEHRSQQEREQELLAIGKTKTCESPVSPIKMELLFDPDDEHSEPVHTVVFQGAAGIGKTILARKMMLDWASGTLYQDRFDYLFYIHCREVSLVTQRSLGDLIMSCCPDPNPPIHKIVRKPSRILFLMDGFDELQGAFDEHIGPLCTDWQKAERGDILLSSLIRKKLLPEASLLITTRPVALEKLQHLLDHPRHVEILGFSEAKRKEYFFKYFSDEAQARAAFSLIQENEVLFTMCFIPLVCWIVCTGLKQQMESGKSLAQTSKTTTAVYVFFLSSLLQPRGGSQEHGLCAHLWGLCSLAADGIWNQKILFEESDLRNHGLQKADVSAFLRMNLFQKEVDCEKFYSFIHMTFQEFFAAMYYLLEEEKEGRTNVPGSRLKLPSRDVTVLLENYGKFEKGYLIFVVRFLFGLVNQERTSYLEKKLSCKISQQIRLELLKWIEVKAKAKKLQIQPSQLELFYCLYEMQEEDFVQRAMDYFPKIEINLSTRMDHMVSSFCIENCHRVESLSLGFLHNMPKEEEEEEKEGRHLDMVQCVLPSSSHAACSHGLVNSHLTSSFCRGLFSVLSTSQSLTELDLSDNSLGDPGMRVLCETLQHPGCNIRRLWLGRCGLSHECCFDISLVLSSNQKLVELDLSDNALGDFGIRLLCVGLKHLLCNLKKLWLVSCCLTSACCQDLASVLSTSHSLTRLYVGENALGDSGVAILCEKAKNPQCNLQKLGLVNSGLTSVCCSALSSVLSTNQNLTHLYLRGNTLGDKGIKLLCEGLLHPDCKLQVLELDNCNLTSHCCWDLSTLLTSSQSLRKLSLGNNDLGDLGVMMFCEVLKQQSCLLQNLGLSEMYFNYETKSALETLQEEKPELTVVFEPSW

Broadly, the IC50 is the point on the concentration scale where inhibition reaches its midpoint. The low end stands for greater potency, the high end for weaker potency. As to `Cc1cc(C2CC2)cc(C)c1-n1nc2nc(N3CCCC3)[nH]c(=S)c2n1` [Compound 54, 2-(4-cyclopropyl-2,6-dimethylphenyl)-5-(pyrrolidin-1-yl)-2,6-dihydro-7H-[1,2,3]triazolo[4,5-d]pyrimidine-7-thione], the IC50 in test [1] and in test [2] was under 100 nM each time.
For `Cc1cc(Br)cc(C)c1-n1nc2nc(N3CCCC3)[nH]c(=S)c2n1` [Compound 52, 2-(4-bromo-2,6-dimethylphenyl)-5-(pyrrolidin-1-yl)-2,6-dihydro-7H-[1,2,3]triazolo[4,5-d]pyrimidine-7-thione], the IC50 in test [1] was under 50 nM; in test [2] it was under 500 nM.
